Experimental data from patent publication US20240174684A1, “INHIBITORS OF cGAS ACTIVITY AS THERAPEUTIC AGENTS” (BELLBROOK LABS, LLC, priority 2021, published 2024).
≈ marks a conversion by molar mass, not a printed value. Where two headings read alike, the source gives them in different places.

Assays:
[1] = test system: MDR1 (P-glycoprotein); assay: MDCK-MDR1 permeability A→B; assay type: in vitro ADME, Canine; conditions: dog; MDCK cells expressing human MDR1, A→B; read-out: MDCK-MDR Permeability A→B
Method in brief: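 Permeability measured apical-to-basolateral in MDCK cells expressing human MDR1, reported as binned ranges in cm/s×10^−6. Metabolic stability determined as half-life in mouse and human hepatocytes, reported as binned ranges in minutes.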

[2] = Metabolic stability in mouse hepatocytes; assay type: in vitro ADME; conditions: read-out: Mouse MS Stability t1/2
Protocol: (§1) ADME studies: Compound A and the compounds of the disclosure were tested for aqueous solubility (KSOL), metabolic stability (human and mouse […]) and permeability (Caco-2 and/or MDR1-MDCK cells) to provide an initial indication of oral bioavailability.
(§2) The favorable physicochemical properties are reflected in promising results in in vitro ADME tests. […] Metabolic stability, which was routinely measured with mouse and human hepatocytes, is outstanding, with t, greater than 2 hours for all of the compounds of the disclosure in which it has been measured. Cell permeability was measured using MDCK cells expressing human MDR1 (P-glycoprotein) to assess passive permeability as well as active transport out of the cell. […] Numerous compounds in Table 1 meet these permeability criteria, which is consistent with their design for TPSA <140 Å^2 and increased lipophilicity.
(§3) The MDCK-MDR1 permeability A ->B is shown in Table 2 below, where A represents 5-10 cm/s×10^−6; B represents 1-5 cm/s×10^−6; and C represents <1 cm/ss×10^−6. The metabolic stability half time, in both mouse and human hepatocytes, is also shown in Table 2 below, where A′ represents 100-200 minutes; B′ represents 200-300 minutes; and C′ represents >300 minutes.

[3] = Metabolic stability in human hepatocytes; assay type: in vitro ADME; conditions: read-out: Human MS Stability t1/2
Protocol: as §1, §2, §3

[4] = Kinetic aqueous solubility (KSOL) in PBS, pH 7.4; assay type: physicochemical; conditions: aqueous buffer, kinetic from dmso stock
Protocol: as §1, §2

[5] = target: T1, cGAS (Homo sapiens, UniProt Q8N884); assay: Transcreener cGAS enzymatic assay (FP); assay type: biochemical
Method in brief: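 Human cGAS (30 nm) inhibition, 60 min reactions, FP read-out, standard conditions 100 μM ATP and GTP plus 62.5 nM bp ISD. Also run at 1 mM ATP and GTP (physiological), with 200 μM MnCl2, and with mouse cGAS under standard conditions; IC50 reported.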

[6] = test system: IFNβ production in THP-1 cells; assay: IFNβ ELISA in THP-1 cells; assay type: cell-based, human; conditions: for IC50: Homo sapiens, THP-1 cells
Method in brief: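 THP-1 cells stimulated with dsDNA or cGAMP (STING activation bypassing cGAS) in the presence of compound; IFNβ secreted into medium quantified by ELISA. IC50 values reported in potency bins.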

[7] = test system: IFN-β production in PBMCs; assay: IFNβ ELISA in human primary PBMCs; assay type: cell-based; conditions: PBMC
Source text: Cellular assays: The human monocyte cell line THP-1 and human primary PBMCs were used to evaluate the cellular activity of compounds with good biochemical potency. These cells produce a robust cGAS/STING-dependent type I IFN response when stimulated with dsDNA and other pathogen-associated molecular patterns, which was detected using a standard ELISA for IFNβ (R&D Systems). The TBK1 inhibitor, BX-795, which acts downstream of cGAS/STING, was used as a probe.
The ICso values for IFNB ELISA stimulated with THP-1, PBMC, DNA, and cGAMP were determined for several exemplary compounds of the invention, and are provided in Table 3 where A represents <1 μM; B represents 1-2.5 μM; C represents 2.5-10 μM; D represents 10-20 μM; and E represents >20 μM.
(§4) The reporter gene assays were used to assess off-target activity with IRF30Luc (RIG-1) or NFKB (TLR4); CellTiter Glo (ATP levels) and Presto Blue (reducing equivalents) were used to assess cytotoxicity; all assays were performed in dose response mode. […] The inventors recently began using human PBMCs to assess cellular potency in a more physiologically relevant context.

[8] = target: mouse cGAS (Mus musculus, UniProt Q8C6L5); assay: Transcreener cGAS enzymatic assay with mouse cGAS; assay type: biochemical; conditions: standard conditions, read-out: IC50 with mcGAS
Protocol: Structural, biochemical and biophysical analysis and selectivity profiling: Potency and MOA studies, including Mn^2+ sensitivity, were performed using the Transcreener cGAS enzymatic assay, which is manufactured at BellBrook Labs (Fitchburg, Wisconsin, USA). This homogenous cGAS enzymatic assay was developed with fluorescence polarization (FP) and time-resolved Forster resonance energy transfer (TR-FRET) readouts, as described in International Patent Publication WO 2020/142729, incorporated by reference herein in its entirety. Plates are read on a PHERAstar FSX multimode reader (BMG). The compounds of the disclosure were tested for inhibition of cGAS ([…]) using this cGAS enzymatic assay under standard conditions (100 μM ATP and GTP, 62.5 nM bp ISD, 60 minute reactions), high ATP and GTP (1 mM) to mimic physiological conditions, in the presence of 200 μM MnCl2, and with mouse cGAS under standard conditions.
Potency with mcGAS is important for vivo efficacy studies and represents a challenge for lead development because mcGAS shares only 57% amino acid identity with human enzyme and there are significant functional differences.

[9] = target: T1, cGAS; assay: Cellular thermal shift assay (CETSA) in THP-1 cells; assay type: cell-based; conditions: heat treatment 51.5 °C
Protocol: Panel A is an image of a western blot of the stabilization measure; panel B is a bar graph of the stabilization measure. Heat treatment was conducted at 51.5 ° C.
(§5) CETSA was also used to confirm that the compounds are binding to cGAS in cells; THP-1 cells are used for this analysis. Compounds were tested in dose response mode by incubating with cells for 1.5 hours at 37° C., followed by pelleting and re-suspending in PBS, heating to 51.5° C. for 3 min and cooling to room temp. Cells were then lysed, debris, including denatured cGAS, was pelleted and the supernatant was analyzed for soluble cGAS by Western Blot using anti-cGAS primary Ab (Cell Signaling). Band intensity was analyzed using Image J software. Stimulation with cGAMP directly activates STING, circumventing cGAS; this was used to determine if compounds had effects on downstream components of cGAS/STING signaling. The IFN-6 ELISA was used as the primary measure of cellular potency and selectivity (Table 3) and used the reporter gene assays for assessing off-target activity with other pattern recognition receptors.

[10] = test system: RIG-1 signaling; assay: Reporter gene assay IRF30Luc (RIG-1); assay type: cell-based; conditions: concentrations as high as 100 μM
Protocol: as §5, §4

[11] = test system: TLR4 pathway; assay: Reporter gene assay NFKB (TLR4); assay type: cell-based; conditions: concentrations as high as 100 μM
Protocol: as §5, §4

[12] = Cytotoxicity, CellTiter Glo (ATP levels) and Presto Blue (reducing equivalents); assay type: cell-based; conditions: concentrations as high as 100 μM
Protocol: as §4

[13] = test system: isolated Luc reporter enzyme; assay: Isolated Luc reporter enzyme inhibition; assay type: biochemical; conditions: at 80 μM
[14] = target: isolated SEAP reporter enzyme (Homo sapiens, UniProt P05187); assay: Isolated SEAP reporter enzyme inhibition; assay type: biochemical
[15] = high ATP and GTP (1 mM) to mimic physiological conditions, read-out: IC50 FP Physiological
[16] = standard conditions: 100 μM ATP and GTP, 62.5 nM bp ISD, 60 minute reactions, read-out: IC50 FP Standard

T1 sequence (Q8N884 whole entry): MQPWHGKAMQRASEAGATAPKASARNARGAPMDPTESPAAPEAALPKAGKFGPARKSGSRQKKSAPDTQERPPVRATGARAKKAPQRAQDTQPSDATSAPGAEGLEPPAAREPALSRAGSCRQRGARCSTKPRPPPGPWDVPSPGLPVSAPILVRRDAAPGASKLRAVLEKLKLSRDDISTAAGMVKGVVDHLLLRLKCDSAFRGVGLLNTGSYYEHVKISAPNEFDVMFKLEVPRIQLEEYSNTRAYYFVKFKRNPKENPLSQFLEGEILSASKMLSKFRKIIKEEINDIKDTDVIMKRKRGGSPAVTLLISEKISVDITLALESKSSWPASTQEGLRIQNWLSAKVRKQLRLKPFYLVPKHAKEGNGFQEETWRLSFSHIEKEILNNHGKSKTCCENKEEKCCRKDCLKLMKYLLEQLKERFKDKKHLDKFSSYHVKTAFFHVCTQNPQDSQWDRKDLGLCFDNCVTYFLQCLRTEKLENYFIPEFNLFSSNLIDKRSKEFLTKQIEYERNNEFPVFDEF
Chain of mouse cGAS (Q8C6L5 whole entry): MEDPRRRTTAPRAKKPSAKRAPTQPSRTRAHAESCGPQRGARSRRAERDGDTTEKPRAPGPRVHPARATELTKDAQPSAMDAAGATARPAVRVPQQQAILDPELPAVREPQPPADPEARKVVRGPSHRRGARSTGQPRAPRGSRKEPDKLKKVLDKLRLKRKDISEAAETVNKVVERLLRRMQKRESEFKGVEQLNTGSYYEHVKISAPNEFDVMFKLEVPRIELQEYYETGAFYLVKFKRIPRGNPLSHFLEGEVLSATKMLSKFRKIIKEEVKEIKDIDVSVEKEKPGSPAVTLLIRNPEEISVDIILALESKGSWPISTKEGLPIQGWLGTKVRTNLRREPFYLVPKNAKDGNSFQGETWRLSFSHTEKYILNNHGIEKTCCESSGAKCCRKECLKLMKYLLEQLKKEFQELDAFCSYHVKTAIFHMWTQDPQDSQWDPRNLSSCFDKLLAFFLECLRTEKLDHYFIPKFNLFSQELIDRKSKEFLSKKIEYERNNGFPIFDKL
Chain of isolated SEAP reporter enzyme (P05187 23-511 limits assumed): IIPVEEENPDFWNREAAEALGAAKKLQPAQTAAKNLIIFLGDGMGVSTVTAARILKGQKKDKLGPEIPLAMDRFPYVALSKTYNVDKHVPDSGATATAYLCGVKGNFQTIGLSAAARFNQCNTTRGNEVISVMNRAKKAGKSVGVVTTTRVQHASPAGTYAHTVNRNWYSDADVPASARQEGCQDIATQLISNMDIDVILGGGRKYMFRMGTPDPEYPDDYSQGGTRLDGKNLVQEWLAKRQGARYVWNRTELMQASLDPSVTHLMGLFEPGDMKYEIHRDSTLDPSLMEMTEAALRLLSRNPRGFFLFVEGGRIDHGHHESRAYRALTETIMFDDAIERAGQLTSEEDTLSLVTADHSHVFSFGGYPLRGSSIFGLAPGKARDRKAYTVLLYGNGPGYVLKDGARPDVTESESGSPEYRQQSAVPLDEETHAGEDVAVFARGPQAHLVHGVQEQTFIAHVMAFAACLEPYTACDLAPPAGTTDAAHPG

| Structure (SMILES) | Papp A→B [1] [×10⁻⁶ cm/s] | half-life [2] [h] | half-life [3] [h] | solubility kinetic [4] [µM] | IC50 [5, 15] [nM] | IC50 [5, 16] [nM] | IC50 [6] [nM] | IC50 [7] [nM] | half-life ([2]; given as number) [h] | Cellular IC50 relative to biochemical IC50 ([6]; cellular assays vs cGAS enzymatic assay at 1 mM ATP/GTP) | IC50 [8] [nM] | Stabilization of cGAS in cells (CETSA) [9] | Inhibition of RIG-1 signaling [10] | Inhibition of TLR4 signaling [11] | Cytotoxicity [12] | Inhibition of isolated Luc [13] [%] | Inhibition of isolated SEAP reporter enzyme [14] |
| --- | --- | --- | --- | --- | --- | --- | --- | --- | --- | --- | --- | --- | --- | --- | --- | --- | --- |
| Cc1nc(N2C[C@@H](CC(=O)Nc3ccc(Cl)c(Cl)c3)C[C@H]2C(=O)O)c2oc3ccccc3c2n1 [Compound 26, (2S,4R)-4-(2-((3,4-dichlorophenyl)amino)-2-oxoethyl)-1-(2-methylbenzofuro[3,2-d]pyrimidin-4-yl)pyrrolidine-2-carboxylic acid] | 5 to 10 | > 5 | > 5 | 80 (≈ 39.9 µg/mL) | 1000 to 5000 | 200 to 1000 | 2500 to 10000 | 2500 to 10000 |  |  |  |  |  |  |  |  |  |
| Cc1nc(N2C[C@@H](CC(=O)Nc3ccc(-c4ccccc4)c(C(F)(F)F)c3)C[C@H]2C(=O)O)c2oc3ccccc3c2n1 [Compound 63, (2S,4R)-1-(2-methylbenzofuro[3,2-d]pyrimidin-4-yl)-4-(2-oxo-2-((2-(trifluoromethyl)-[1,1′-biphenyl]-4-yl)amino)ethyl)pyrrolidine-2-carboxylic acid] | 1 to 5 |  | 1.67 to 3.33 | 570 (≈ 327 µg/mL) | 200 to 500 | 100 to 200 | < 1000 | 1000 to 2500 | > 6 | essentially identical |  |  |  |  |  |  |  |
| Cc1nc(N2C[C@@H](CC(=O)Nc3cccc(-c4ccccc4)c3)C[C@H]2C(=O)O)c2oc3ccccc3c2n1 [Compound 36, (2S,4R)-4-(2-([1,1′-biphenyl]-3-ylamino)-2-oxoethyl)-1-(2-methylbenzofuro[3,2-d]pyrimidin-4-yl)pyrrolidine-2-carboxylic acid] | 1 to 5 | > 5 | > 5 | 155 (≈ 78.5 µg/mL) | 200 to 500 | 50 to 100 | 1000 to 2500 | 1000 to 2500 |  |  |  |  |  |  |  |  |  |
| Cc1nc(N2C[C@@H](CC(=O)Nc3ccc4ncsc4c3)C[C@H]2C(=O)O)c2oc3ccccc3c2n1 [Compound 4, (2S,4R)-4-(2-(benzo[d]thiazol-6-ylamino)-2-oxyethyl)-1-(2-methylbenzofuro[3,2-d]pyrimidin-4-yl)pyrrolidine-2-carboxylic acid] | 1 to 5 | 1.67 to 3.33 |  | 488 (≈ 238 µg/mL) | < 200 | 50 to 100 | > 20000 |  |  |  | 8300 | stabilized cGAS | no detectable inhibition | no detectable inhibition | no cytotoxicity | 50 | appreciably |
| Cc1nc(N2C[C@@H](CC(=O)Nc3ccc(Cc4ccccc4)cc3)C[C@H]2C(=O)O)c2oc3ccccc3c2n1 [Compound 54, (28.4R)-4-(2-((4-benzylphenyl)amino)-2-oxoethyl)-1-(2-methylbenzofuro[3,2-d]pyrimidin-4-yl)pyrrolidine-2-carboxylic acid] | 1 to 5 | 1.67 to 3.33 | 1.67 to 3.33 | 285 (≈ 148 µg/mL) | 500 to 1000 | 50 to 100 | 1000 to 2500 | 2500 to 10000 |  |  |  |  |  |  |  |  |  |
| C#Cc1ccc(NC(=O)C[C@H]2C[C@@H](C(=O)O)N(c3nc(C)nc4c3oc3ccccc34)C2)cc1 [Compound 27, (2S,4R)-4-(2-((4-ethynylphenyl)amino)-2-oxoethyl)-1-(2-methylbenzofuro[3,2-d]pyrimidin-4-yl)pyrrolidine-2-carboxylic acid] | 1 to 5 | > 5 | 1.67 to 3.33 | 548 (≈ 249 µg/mL) | 1000 to 5000 | 100 to 200 | 2500 to 10000 | 2500 to 10000 |  |  |  |  |  |  |  |  |  |
| Cc1nc(N2C[C@@H](CC(=O)Nc3ccc4ccccc4c3)C[C@H]2C(=O)O)c2oc3ccccc3c2n1 [Compound 31, (2S,4R)-1-(2-methylbenzofuro[3,2-d]pyrimidin-4-yl)-4-(2-(naphthalen-2-ylamino)-2-oxoethyl)pyrrolidine-2-carboxylic acid] | 5 to 10 | > 5 | 1.67 to 3.33 | 313 (≈ 150 µg/mL) | 200 to 500 | 50 to 100 | 1000 to 2500 | 1000 to 2500 |  |  |  |  |  |  |  |  |  |
